According to patent US11318190B2, “Methods and compositions for treating liver disease” (UNITED STATES GOVERNMENT AS REPRESENTED BY THE DEPARTMENT …, priority 2017, dated 2022):

Tests used:
dnTGF-βRII mice [1] = assay: dnTGF-βRII mice 32-34 wk (late stage PBC model) treated 1 wk by osmotic minipump; assay type: in vivo, mouse; conditions: for intrahepatic bile duct mass (IBDM, CK-19): 1 wk minipump
Experimental: (§1) Briefly, we used wild-type (WT), dnTGFβRII 12 wk and dnTGFβRII 34 wk mice treated with control or SR antagonist (SCT 5-27) minipump (10 μg/kg/day) for 1 wk. Hepatic damage was shown by H&E. IBDM and cholangiocyte proliferation were measured by immunohistochemistry for CK-19 and Ki67, respectively. Biliary apoptosis was evaluated by TUNEL staining. Senescence was measured in cholangiocytes by immunofluorescence for CCL2 or p16 co-stained with CK-19 (to image bile ducts) and SA-β-Galactosidase activity. Hepatic fibrosis was assessed by qPCR for collagen-1a and α-SMA in total liver, and quantification of Sirius Red staining. Hepatic stellate cell (HSC) activation was evaluated by immunofluorescence (IF) for Syp-9. HSC senescence was evaluated by IF for CCL2 or p16 co-stained with desmin (to visualize HSCs). Secretin levels in serum and bile were measured by EIA. Bile and serum were obtained from human control, early PBC and advanced PBC patients, and secretin was evaluated by EIA.
(§2) All animal procedures were performed according to protocols approved by the Baylor Scott & White Health IACUC Committee. Transgenic mice expressing a dominant-negative form of the human transforming growth factor-beta receptor II (dnTGF-βRII) were obtained from Dr. M. Eric Gershwin at UC Davis Health (Sacramento, Calif.), and background-matched wild-type (WT, strain C57BL/6) mice were purchased from Charles River Laboratories (Wilmington, Mass.); the breeding colony is established in our animal facility. Animals were maintained in micro-isolator cages in a temperature-controlled environment with 12/12-hr light/dark cycles and fed ad libitum standard chow with free access to drinking water. Studies were performed in 12 wk-old WT mice, and 12 wk-old (mimic early stage PBC) and 32 wk-old (mimic late stage PBC) female and male dnTGF-βRII mice (25-30 gm) that were treated with either saline, secretin (Sct; 2.5 nmoles/kg body weight per day; Bachem, Torrance, Calif.) or the secretin receptor (SR) antagonist, Sec 5-27 (10 μg/kg body weight per day; Thermo Fisher Scientific, Waltham, Mass.) for 1 wk by intraperitoneally implanted osmotic minipump. Liver tissue samples and blocks (formalin-fixed, paraffin-embedded and OCT-embedded), serum, bile, cholangiocytes, and cholangiocyte supernatants (after incubation at 37° C. for 4 hr) were collected as described.
(§3) Hematoxylin and eosin (H&E) staining was performed in formalin-fixed, paraffin-embedded liver sections (4-5 μm, 3 samples from 3 different animals) to determine liver morphology. H&E stained liver sections were evaluated by a board-certified pathologist to assess the degree of lobular damage, hepatic necrosis and portal inflammation. At least 10 different portal areas were evaluated for each parameter. Liver sections were examined in a coded fashion by BX-51 light microscopy (Olympus, Tokyo, Japan) equipped with a camera (See, Mancinelli, R et al., Ischemia reperfusion of the hepatic artery induces the functional damage of large bile ducts by changes in the expression of angiogenic factors. Am J Physiol Gastrointest Liver Physiol 2015; 309:G865-873 (2015); Taffetani S et al., Prolactin stimulates the proliferation of normal female cholangiocytes by differential regulation of Ca2+-dependent PKC isoforms, BMC Physiol 7:6 (2007)).
(§4) Serum levels of alkaline phosphatase (ALP) and γ-glutamyltransferase (γGT) are commonly used to diagnose PBC (Heathcote, E J, Management of primary biliary cirrhosis. The American Association for the Study of Liver Diseases practice guidelines, Hepatology 31:1005-1013 (2000)); therefore, were measured serum levels of ALP and γGT in mouse serum samples using the Alkaline Phosphatase Assay Kit and γ-Glutamyltransferase Activity Colorimetric Assay Kit, respectively (Abcam; Cambridge, Mass.).
(§5) Early stage PBC is identified by cholangiocyte proliferation, whereas late stage PBC is characterized by ductopenia. […]

Mdr2−/− mice = conditions: cited from earlier work
dnTGF-βRII mice [2] = assay: dnTGF-βRII mice 12 wk (early stage PBC model) treated 1 wk by osmotic minipump; assay type: in vivo, mouse; conditions: dnTGF-βRII 12 wk; for intrahepatic bile duct mass (IBDM, CK-19): 1 wk minipump
Experimental: as §1, §2, §3, §4, §5

[3] = test system: human hepatic stellate cells (hHSC); assay: hHSC activation by cholangiocyte supernatants from treated mice (qPCR); assay type: cell-based
Experimental: In vitro experiments were performed in human hepatic stellate cells (hHSC) that were purchased from ScienCell Research Laboratories (Carlsbad, Calif.) that were maintained in standard conditions.
[…] Activation of hHSCs was determined by qPCR for FN-1, TGF-β1, α-SMA, and collagen type-1a (Kennedy, L L et al., Knockout of microRNA-21 reduces biliary hyperplasia and liver fibrosis in cholestatic bile duct ligated mice, Lab Invest 96:1256-1267 (2016)).

[4] = dnTGF-βRII 32/34 wk, vs saline treated
[5] = dnTGF-βRII 32/34 wk, listed as SR antagonist
[6] = vs saline treated, listed as SR antagonist

15-lysine-secretin-(5-27) [SCT 5-27]
biliary senescence (p16, p18, p21, CCL2) (dnTGF-βRII mice [1]; dnTGF-βRII 32/34 wk): further increased
cholangiocyte apoptosis (TUNEL) (dnTGF-βRII mice [1]; dnTGF-βRII 32/34 wk): further increased
collagen content / deposition (Sirius Red), hepatic fibrosis (dnTGF-βRII mice [1]; dnTGF-βRII 32/34 wk): increased
Sct, SR, CFTR and AE2 expression (dnTGF-βRII mice [1]; [4]): further decrease
intrahepatic bile duct mass (IBDM, CK-19) (dnTGF-βRII mice [1]; [4]): further reduced
intrahepatic bile duct mass (IBDM, CK-19) (dnTGF-βRII mice [1]; dnTGF-βRII 32/34 wk, vs saline treated, listed as SR antagonist): decreased
biliary senescence (p16, p18, p21, CCL2) (dnTGF-βRII mice [1]; [5]): increased
cholangiocyte apoptosis (TUNEL) (dnTGF-βRII mice [1]; [5]): exacerbated
collagen content / deposition (Sirius Red), hepatic fibrosis (dnTGF-βRII mice [1]; [5]): further increased
HSC activation (SYP-9) (dnTGF-βRII mice [1]; dnTGF-βRII 34 wk): increased
biliary growth / cholangiocyte proliferation (dnTGF-βRII mice [1]; dnTGF-βRII 34 wk): further reduced
liver damage (H&E) (dnTGF-βRII mice [1]; dnTGF-βRII 34 wk): exacerbated
secretin levels (serum; serum and bile) (dnTGF-βRII mice [1]; dnTGF-βRII 34 wk): reduced
HSC activation (SYP-9) (dnTGF-βRII mice [1]; dnTGF-βRII 34 wk, listed as SR antagonist): enhanced
hepatic fibrosis and HSC activation (Mdr2−/− mice; BDL and Mdr2−/− mouse model of PSC): reduced
TGF-β1/TGF-β1 receptor axis expression (Mdr2−/− mice; Mdr2−/− mice): decreased
biliary mass and HSCs activation (Mdr2−/− mice; Mdr2−/− mice): reduced
HSC activation (SYP-9 staining) (dnTGF-βRII mice [2]): reduced
HSC senescence (dnTGF-βRII mice [2]): increased
biliary senescence (p16, p18, p21, CCL2) (dnTGF-βRII mice [2]): reduced
cholangiocyte apoptosis (TUNEL-positive cholangiocytes) (dnTGF-βRII mice [2]): enhanced
cholangiocyte proliferation (Ki67) (dnTGF-βRII mice [2]): reduced
liver damage (H&E: portal inflammation, inflammatory infiltration, lobular necrosis) (dnTGF-βRII mice [2]): reduced
secretin levels (serum and bile, EIA) (dnTGF-βRII mice [2]): reduced
Sct, SR, CFTR and AE2 expression (dnTGF-βRII mice [2]; vs saline treated): reduced
collagen content / deposition (Sirius Red), hepatic fibrosis (dnTGF-βRII mice [2]; vs saline treated): significantly reduced
serum levels of ALP and γGT (dnTGF-βRII mice [2]; vs saline treated): reduced
intrahepatic bile duct mass (IBDM, CK-19) (dnTGF-βRII mice [2]; vs saline treated): significantly reduced
intrahepatic bile duct mass (IBDM, CK-19) (dnTGF-βRII mice [2]; [6]): reduced
collagen content / deposition (Sirius Red), hepatic fibrosis (dnTGF-βRII mice [2]; [6]): ameliorated
biliary senescence (p16, p18, p21, CCL2) (dnTGF-βRII mice [2]; listed as SR antagonist): decreased
cholangiocyte apoptosis (TUNEL-positive cholangiocytes) (dnTGF-βRII mice [2]; listed as SR antagonist): increased
liver damage (H&E: portal inflammation, inflammatory infiltration, lobular necrosis) (dnTGF-βRII mice [2]; listed as SR antagonist): ameliorated
expression of FN-1, TGF-β1, α-SMA and collagen type-1a in hHSCs ([3]; cholangiocyte supernatants from treated dnTGF-βRII mice 12 wks): reduced
expression of FN-1, TGF-β1, α-SMA and collagen type-1a in hHSCs ([3]; cholangiocyte supernatants from treated dnTGF-βRII mice 34 wks): enhanced
